HELM strings list units from the 5' end as sugar, base in round brackets, then linkage (d deoxyribose, r ribose, m 2'-O-methyl, p phosphodiester). Strings are as the collection lists them; they lack the last nucleoside at the 3' end of the tested compound. [moe] = 2'-O-(2-methoxyethyl) (MOE); [sp] = phosphorothioate linkage; [m5C] = 5-methylcytosine
These substances were tested against C9ORF72 (assay: mouse, dose not given). Details: ASO.

**Q.** “RNA1{[moe](A)[sp].[moe](A)[sp].[moe](T)[sp].[moe]([m5C])[sp].[moe](T)[sp].d(T)[sp].d(T)[sp].d(A)[sp].d(T)[sp].d([m5C])[sp].d(A)[sp].d(G)[sp].d(G)[sp].d(T)[sp].d([m5C])[sp].[moe](T)[sp].[moe](T)[sp].[moe](T)[sp].[moe](T)}$$$$ (last 3' nucleoside missing)” was tested. Which 3 h FOB score did it give?
**A.** 6.5 score 0-7

**Q.** With “RNA1{[moe](A)[sp].[moe](G)p.[moe](G)p.[moe]([m5C])[sp].d(T)[sp].d(G)[sp].d([m5C])[sp].d(G)[sp].d(G)[sp].d(T)[sp].d(T)[sp].d(G)[sp].[moe](T)p.[moe](T)p.[moe](T)p.[moe]([m5C])[sp].[moe]([m5C])}$$$$ (last 3' nucleoside missing)” as the substance, how does the 3 h FOB score read?
**A.** 7 score 0-7

**Q.** How did the 3 h FOB score turn out when “RNA1{[moe](A)[sp].[moe](G)p.[moe](G)p.[moe]([m5C])p.[moe](T)p.[moe](G)[sp].d([m5C])[sp].d(G)[sp].d(G)[sp].d(T)[sp].d(T)[sp].d(G)[sp].d(T)[sp].d(T)[sp].[moe](T)p.[moe]([m5C])[sp].[moe]([m5C])}$$$$ (last 3' nucleoside missing)” was run?
**A.** 5.25 score 0-7

**Q.** With “RNA1{[moe](A)[sp].[moe](G)p.[moe](G)p.[moe]([m5C])p.[moe](T)p.[moe](G)p.d([m5C])[sp].d(G)[sp].d(G)[sp].d(T)[sp].d(T)[sp].d(G)[sp].d(T)[sp].d(T)[sp].d(T)[sp].[moe]([m5C])p.[moe]([m5C])[sp].[moe]([m5C])}$$$$ (last 3' nucleoside missing)” as the substance, how does the 3 h FOB score read?
**A.** 6 score 0-7

**Q.** “RNA1{[moe](A)[sp].[moe](G)p.[moe](G)p.[moe]([m5C])p.[moe](T)p.[moe](G)p.d([m5C])[sp].d(G)[sp].d(G)[sp].d(T)[sp].d(T)[sp].d(G)[sp].d(T)[sp].d(T)[sp].d(T)[sp].d([m5C])[sp].[moe]([m5C])p.[moe]([m5C])[sp].[moe](T)}$$$$ (last 3' nucleoside missing)” was tested. Which 3 h FOB score did it give?
**A.** 4 score 0-7

**Q.** With “RNA1{[moe](A)[sp].[moe](G)p.[moe](G)p.[moe]([m5C])p.[moe](T)p.d(G)[sp].d([m5C])[sp].d(G)[sp].d(G)[sp].d(T)[sp].d(T)[sp].d(G)[sp].d(T)[sp].d(T)[sp].[moe](T)p.[moe]([m5C])p.[moe]([m5C])[sp].[moe]([m5C])}$$$$ (last 3' nucleoside missing)” as the substance, how does the 3 h FOB score read?
**A.** 6.25 score 0-7

**Q.** For “RNA1{[moe](A)[sp].[moe](G)p.[moe](G)p.[moe]([m5C])p.d(T)[sp].d(G)[sp].d([m5C])[sp].d(G)[sp].d(G)[sp].d(T)[sp].d(T)[sp].d(G)[sp].d(T)[sp].[moe](T)p.[moe](T)p.[moe]([m5C])p.[moe]([m5C])[sp].[moe]([m5C])}$$$$ (last 3' nucleoside missing)”, which 3 h FOB score is on record?
**A.** 6.5 score 0-7

**Q.** Which 3 h FOB score does the source give for “RNA1{[moe](A)[sp].[moe](G)p.[moe](G)p.[moe]([m5C])p.d(T)[sp].d(G)[sp].d([m5C])[sp].d(G)[sp].d(G)[sp].d(T)[sp].d(T)[sp].d(G)[sp].d(T)[sp].d(T)[sp].[moe](T)p.[moe]([m5C])p.[moe]([m5C])p.[moe]([m5C])[sp].[moe](T)}$$$$ (last 3' nucleoside missing)” here?
**A.** 6.25 score 0-7

**Q.** How did the 3 h FOB score turn out when “RNA1{[moe](G)[sp].[moe](G)[sp].[moe](G)[sp].[moe](A)[sp].[moe]([m5C])[sp].d(A)[sp].d([m5C])[sp].d(T)[sp].d(A)[sp].d([m5C])[sp].d(A)[sp].d(A)[sp].d(G)[sp].d(G)[sp].d(T)[sp].[moe](A)[sp].[moe](G)[sp].[moe](T)[sp].[moe](A)}$$$$ (last 3' nucleoside missing)” was run?
**A.** 5.67 score 0-7

**Q.** Which 3 h FOB score does the source give for “RNA1{[moe](G)[sp].[moe](G)[sp].[moe](T)[sp].[moe](A)[sp].[moe](A)[sp].d([m5C])[sp].d(T)[sp].d(T)[sp].d([m5C])[sp].d(A)[sp].d(A)[sp].d(A)[sp].d([m5C])[sp].d(T)[sp].d([m5C])[sp].[moe](T)[sp].[moe](T)[sp].[moe](G)[sp].[moe](G)}$$$$ (last 3' nucleoside missing)” here?
**A.** 7 score 0-7

**Q.** How did the 3 h FOB score turn out when “RNA1{[moe](G)[sp].[moe](G)p.[moe](T)p.[moe](T)[sp].d(A)[sp].d(A)[sp].d(T)[sp].d([m5C])[sp].d(T)[sp].d(T)[sp].d(T)[sp].d(A)[sp].[moe](T)p.[moe]([m5C])p.[moe](A)p.[moe](G)[sp].[moe](G)}$$$$ (last 3' nucleoside missing)” was run?
**A.** 1 score 0-7

**Q.** For “RNA1{[moe](G)[sp].[moe](G)p.[moe](T)p.[moe](T)p.[moe](A)p.[moe](A)[sp].d(T)[sp].d([m5C])[sp].d(T)[sp].d(T)[sp].d(T)[sp].d(A)[sp].d(T)[sp].d([m5C])[sp].[moe](A)p.[moe](G)[sp].[moe](G)}$$$$ (last 3' nucleoside missing)”, which 3 h FOB score is on record?
**A.** 1.25 score 0-7

**Q.** Which 3 h FOB score does the source give for “RNA1{[moe](G)[sp].[moe](G)p.[moe](T)p.[moe](T)p.[moe](A)p.[moe](A)p.[moe](T)p.d([m5C])[sp].d(T)[sp].d(T)[sp].d(T)[sp].d(A)[sp].d(T)[sp].d([m5C])[sp].d(A)[sp].d(G)[sp].d(G)[sp].[moe](T)[sp].[moe]([m5C])}$$$$ (last 3' nucleoside missing)” here?
**A.** 5.75 score 0-7

**Q.** How did the 3 h FOB score turn out when “RNA1{[moe](G)[sp].[moe](G)p.[moe](T)p.[moe](T)p.[moe](A)p.[moe](A)p.d(T)[sp].d([m5C])[sp].d(T)[sp].d(T)[sp].d(T)[sp].d(A)[sp].d(T)[sp].d([m5C])[sp].d(A)[sp].d(G)[sp].[moe](G)p.[moe](T)[sp].[moe]([m5C])}$$$$ (last 3' nucleoside missing)” was run?
**A.** 1.5 score 0-7

**Q.** With “RNA1{[moe](G)[sp].[moe](G)p.[moe](T)p.[moe](T)p.d(A)[sp].d(A)[sp].d(T)[sp].d([m5C])[sp].d(T)[sp].d(T)[sp].d(T)[sp].d(A)[sp].d(T)[sp].d([m5C])[sp].[moe](A)p.[moe](G)p.[moe](G)p.[moe](T)[sp].[moe]([m5C])}$$$$ (last 3' nucleoside missing)” as the substance, how does the 3 h FOB score read?
**A.** 0 score 0-7

**Q.** Which 3 h FOB score does the source give for “RNA1{[moe](G)[sp].[moe](G)p.[moe](T)p.d(T)[sp].d(A)[sp].d(A)[sp].d(T)[sp].d([m5C])[sp].d(T)[sp].d(T)[sp].d(T)[sp].d(A)[sp].d(T)[sp].[moe]([m5C])p.[moe](A)p.[moe](G)p.[moe](G)p.[moe](T)[sp].[moe]([m5C])}$$$$ (last 3' nucleoside missing)” here?
**A.** 0 score 0-7

**Q.** “RNA1{[moe](G)[sp].[moe](G)p.[moe]([m5C])p.[moe](T)[sp].d(G)[sp].d([m5C])[sp].d(G)[sp].d(G)[sp].d(T)[sp].d(T)[sp].d(G)[sp].d(T)[sp].[moe](T)p.[moe](T)p.[moe]([m5C])p.[moe]([m5C])[sp].[moe]([m5C])}$$$$ (last 3' nucleoside missing)” was tested. Which 3 h FOB score did it give?
**A.** 6 score 0-7

**Q.** Which 3 h FOB score does the source give for “RNA1{[moe](G)[sp].[moe](G)p.[moe]([m5C])p.[moe](T)p.[moe](G)p.[moe]([m5C])[sp].d(G)[sp].d(G)[sp].d(T)[sp].d(T)[sp].d(G)[sp].d(T)[sp].d(T)[sp].d(T)[sp].[moe]([m5C])p.[moe]([m5C])[sp].[moe]([m5C])}$$$$ (last 3' nucleoside missing)” here?
**A.** 2.5 score 0-7

**Q.** With “RNA1{[moe](G)[sp].[moe](G)p.[moe]([m5C])p.[moe](T)p.[moe](G)p.[moe]([m5C])p.d(G)[sp].d(G)[sp].d(T)[sp].d(T)[sp].d(G)[sp].d(T)[sp].d(T)[sp].d(T)[sp].d([m5C])[sp].[moe]([m5C])p.[moe]([m5C])[sp].[moe](T)}$$$$ (last 3' nucleoside missing)” as the substance, how does the 3 h FOB score read?
**A.** 5.25 score 0-7

— the OligoGym collection
